According to patent US20230210881A1, “NICOTINAMIDE MONONUCLEOTIDE DERIVATIVES FOR THE TREATMENT OF BACTERIAL INFECTIONS” (NUVAMID SA, priority 2020, published 2023):

Key:
Escherichia coli = test: Non-lethal model of Escherichia coli induced pneumonia, bacterial culture in the spleen; assay type: in vivo, BALB/c mice; conditions: for bacteria in the spleen: pre-treatment 185 mg/kg
Procedure: The purpose of this study is to evaluate the effect of pre-treatment, with an NAD precursor, on the spread of bacterial infection to the spleen in a mouse model of non-lethal Escherichia coli (E. coli) induced pneumonia.
The administration of the compound at 185 mg/kg and the vehicle (physiological buffer) is performed intraperitoneally and/or intratracheally.
The compound of formula I-A (white powder) is dissolved in the vehicle. The solution is used at room temperature for a maximum of 1 day and freshly prepared for each new experiment.
Immediately before use, the E. coli culture was washed twice with 0.9% NaCl. After the second wash, the pellet was re-suspended in sterile saline and the dose calibrated by nephelometry.
Female BALB/c mice (20-24 g) were then inoculated using intratracheal insertion of a gavage needle (24 G) for injection of 75 μL of the bacterial suspension.
The compound of formula I-A and the vehicle are administered to the animals intraperitoneally and/or intratracheally. The injection of the compound of formula I-A is performed 24 hours prior to the infection with Escherichia coli. Simulated animals are given a physiological buffer by intraperitoneal administration.
At 24 hours, 48 hours, and 72 hours postoperatively, spleens from sacrificed animals were weighed and homogenized in 1 mL of saline. These solutions were then used for quantitative agar gel cultures during 24 hours of incubation at 37° C. Viable bacterial colony counts are expressed as Log 10 CFU per gram of organ.

[1] = tested on: caecal ligation and puncture (LPC) induced sepsis; test: Caecal ligation and puncture (LPC) induced sepsis model; assay type: in vivo, mice; conditions: for survival rate: compared with the control group; for Number of surviving mice: 185 mg/kg i.p. once daily; for bacterial load in the blood (bacterial DNA 16S by RT-PCR): 24 hours after LPC; for bacterial load in the blood (bacterial DNA 16S by RT-PCR) / clinical score (murine sepsis score): compared to the control group; for clinical score (murine sepsis score): after LPC at 24, 48, 72 and 96 hours; for temperature after LPC: rectal temperature, 24 hours after surgery
Procedure: The purpose of this study is to evaluate the effect of administration of compounds according to the invention (I-A and I-B) on the survival rate of mice in a caecal ligation and puncture (LPC) induced sepsis model.
The study consists of creating a sepsis model in mice by caecal ligation and puncture (LPC) and evaluating the impact of compounds I-A and I-B on the development of sepsis for 4 days.
The test compounds are administered at 185 mg/kg, intraperitoneally, immediately after the LPC procedure, and then once daily at 24, 48, and 72 hours. The remaining mice are euthanized at 96 hours post-LPC. Vehicle (physiological buffer) is used as a control and administered under the same conditions.
Mice are anesthetized with 3% Vetoflurane. A laparotomy is performed to exteriorize the caecum. For induction of medium grade sepsis, the caecum is ligated between the distal pole and the base of the caecum. A through puncture with a 21-gauge needle is performed. A small amount of excreta is extruded from the mesenteric and antimesenteric penetration holes to ensure patency. The caecum is repositioned over the abdominal cavity. The peritoneum, fascia, abdominal musculature and then the skin are closed by applying simple sutures. The animals are resuscitated by injecting pre-warmed normal saline (37° C.; 5 ml per 100 g body weight) subcutaneously.
Administration of Compound I-A at 185 mg/kg, Compound I-B at 185 mg/kg and vehicle (physiological buffer) is performed intraperitoneally immediately after LPC surgery and then once daily at 24, 48 and 72 hours post LPC.
Survival is assessed every 12 hours for the first two days, then once a day until euthanasia.
Rectal temperature is checked every 2 to 4 hours for the first day, then twice for the second day.
These two parameters are monitored once a day.
The clinical score is defined according to the criteria defined in Table 3:
24 hours after surgery, mice were anesthetized with Vetoflurane and blood was collected from the retroorbital sinus to quantify the bacterial load. Bacterial DNA (16S) is extracted and quantified by RT-PCR.

[2] = tested on: Pseudomonas aeruginosa PAO1; test: Mouse model of respiratory tract infection induced by Pseudomonas aeruginosa PAO1, bacterial load; assay type: in vivo, mice; conditions: day 5 post infection, I-A 185 mg/kg i.p., ciprofloxacin 2 mg/kg i.p., once a day
Procedure: The vehicle (physiological buffer) is used as a control and is administered under the same conditions.
In each group, the bacterial load in the blood and lungs is assessed on day 5 post infection.
Leukopenia is induced by intraperitoneal injections of cyclophosphamide 4 days and 1 day before infection, with doses of 150 mg/kg and 100 mg/kg, respectively. P. aeruginosa PAO1 was obtained from ATCC. One vial is thawed and diluted in sterile PBS on the day of infection.
Bacterial load is assessed in blood and lungs on day 5. Quantitative cultures on agar gel are performed during 24 hours of incubation at 37° C. Viable bacterial colony counts are expressed as Log 10 CFU per mL of blood or per gram of organ.

Row | SMILES | percentage of animals with bacteria in the spleen (Escherichia coli; after 24 hours, compared to the control group) | percentage of positive bacterial culture in the spleen (Escherichia coli; pre-treatment 185 mg/kg 24 hours prior to infection, intraperitoneal administration, compared to untreated mice (control)) | bacteria in the spleen (Escherichia coli; 48 h after intraperitoneal administration) | bacteria in the spleen (Escherichia coli; 72 h after intratracheal administration) | spread of bacteria from the lungs to the spleen (Escherichia coli; pre-treatment, intraperitoneal and/or intratracheal administration) | survival rate ([1]; 185 mg/kg i.p.) | Number of surviving mice ([1]; 24 h after LPC) | bacterial load in the blood (bacterial DNA 16S by RT-PCR) [1] | Number of surviving mice ([1]; 48 h after LPC) | Number of surviving mice ([1]; 72 h after LPC) | Number of surviving mice ([1]; 96 h after LPC) | clinical score (murine sepsis score) [1] | temperature after LPC ([1]; 185 mg/kg i.p.) | reduction of blood bacterial load compared to the vehicle group [2] | pulmonary bacterial load ([2]; compared with the vehicle group) | weight loss ([1]; after LPC over 24-96 hours, 185 mg/kg i.p.)
1 | NC(=O)c1ccc[n+]([C@@H]2O[C@H](COP(=O)([O-])O)[C@@H](O)[C@H]2O)c1 [Compound I-A] | greatly reduced | reduced the percentage of positive cultures in the spleen | no bacteria were found in the spleen | no bacteria were found in the spleen | prevented the spread of bacteria from the lungs to the spleen | improved | 12/12 | significantly decreased | 11/12 | 10/12 | 9/12 | very significantly improved | regain their basal temperature | approximately 2 log | antibacterial effect | 
2 | NC(=O)c1ccc[n+]([C@H]2O[C@H](COP(=O)([O-])O)[C@@H](O)[C@H]2O)c1 [Compound I-B] |  |  |  |  |  | improved | 12/12 | significantly decreased | 9/12 | 8/12 | 6/12 | very significantly improved | regain their basal temperature |  |  | the weight loss is less
